Tested on: Ammannia multiflora
Experiment: Test Example 3 paddy field treatment
Format: in vivo
Conditions: paddy field treatment, wettable powder, active ingredient 1 kg per hectare, 21st day after the dropping, index 0-5
How it was run: (§1)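 Weed seeds sown in puddled paddy soil under 4 cm water, with two-leaf Koshihikari rice transplanted; 10 days later a wettable powder was applied to the water surface at 1 kg active ingredient/ha. Scored 21 days after application on a 0–5 scale (0 = <10%, 5 = ≥90% herbicidal effect or phytotoxicity).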

SMILES	Herbicidal activity AM
CNC(=O)C(Cn1cc(C)c(-c2ccc(C)cc2)n1)=NOC [Compound 37]	5 (herbicidal effect of not less than 90%, or phytotoxicity of 90% or more)
CNC(=O)C(Cn1cc(C)c(-c2ccc(OC)cc2)n1)=NOC [Compound 41, 2-methoxyimino-3-((4′-methoxyphenyl)-4-methyl-pyrazole)-1-yl-propanoic acid-N-methylamide]	5 (herbicidal effect of not less than 90%, or phytotoxicity of 90% or more)

Tested on: Scirpus juncoides
Experiment: Test Example 3 paddy field treatment
Format: in vivo
Conditions: paddy field treatment, wettable powder, active ingredient 1 kg per hectare, 21st day after the dropping, index 0-5
How it was run: as §1

SMILES	Herbicidal activity SJ
CNC(=O)C(Cn1cc(C)c(-c2ccc(C)cc2)n1)=NOC [Compound 37]	5 (herbicidal effect of not less than 90%, or phytotoxicity of 90% or more)
CNC(=O)C(Cn1cc(C)c(-c2ccc(OC)cc2)n1)=NOC [Compound 41, 2-methoxyimino-3-((4′-methoxyphenyl)-4-methyl-pyrazole)-1-yl-propanoic acid-N-methylamide]	5 (herbicidal effect of not less than 90%, or phytotoxicity of 90% or more)

Tested on: Echinochloa crusgalli
Experiment: Test Example 3 paddy field treatment
Format: in vivo
Conditions: paddy field treatment, wettable powder, active ingredient 1 kg per hectare, 21st day after the dropping, index 0-5
How it was run: as §1

SMILES	Herbicidal activity EC
CNC(=O)C(Cn1cc(C)c(-c2ccc(C)cc2)n1)=NOC [Compound 37]	5 (herbicidal effect of not less than 90%, or phytotoxicity of 90% or more)
CNC(=O)C(Cn1cc(C)c(-c2ccc(OC)cc2)n1)=NOC [Compound 41, 2-methoxyimino-3-((4′-methoxyphenyl)-4-methyl-pyrazole)-1-yl-propanoic acid-N-methylamide]	5 (herbicidal effect of not less than 90%, or phytotoxicity of 90% or more)

Tested on: Monochoria vaginalis
Experiment: Test Example 3 paddy field treatment
Format: in vivo
Conditions: paddy field treatment, wettable powder, active ingredient 1 kg per hectare, 21st day after the dropping, index 0-5
How it was run: as §1

SMILES	Herbicidal activity MV
CNC(=O)C(Cn1cc(C)c(-c2ccc(C)cc2)n1)=NOC [Compound 37]	5 (herbicidal effect of not less than 90%, or phytotoxicity of 90% or more)
CNC(=O)C(Cn1cc(C)c(-c2ccc(OC)cc2)n1)=NOC [Compound 41, 2-methoxyimino-3-((4′-methoxyphenyl)-4-methyl-pyrazole)-1-yl-propanoic acid-N-methylamide]	5 (herbicidal effect of not less than 90%, or phytotoxicity of 90% or more)

Tested on: soybean (Glycine max)
Experiment: Test Example 2 upland soil treatment, crop phytotoxicity
Format: in vivo
Conditions: Table 5, upland soil treatment, index 0-5
How it was run: (§2)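 Visual 0–5 grading of herbicidal effect or phytotoxicity, made 21 days after a single pre-emergence soil-surface application at 1 kg a.i./ha.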

SMILES	Herbicidal activity (phytotoxicity) GM: Soybean (Glycine max)
CNC(=O)C(Cn1cc(C)c(-c2ccc(C)cc2)n1)=NOC [Compound 37]	0 (herbicidal effect of not less than 0% and less than 10%, or phytotoxicity of 0% or more and less than 10%)
CNC(=O)C(Cn1cc(C)c(-c2ccc(OC)cc2)n1)=NOC [Compound 41, 2-methoxyimino-3-((4′-methoxyphenyl)-4-methyl-pyrazole)-1-yl-propanoic acid-N-methylamide]	1 (herbicidal effect of not less than 10% and less than 30%, or phytotoxicity of 10% or more and less than 30%)

Tested on: wheat (Triticum aestivum)
Experiment: as above
Format: in vivo
Conditions: Table 5, upland soil treatment, index 0-5
How it was run: as §2

SMILES	Herbicidal activity (phytotoxicity) TA: Wheat (Triticum aestivum)
CNC(=O)C(Cn1cc(C)c(-c2ccc(C)cc2)n1)=NOC [Compound 37]	0 (herbicidal effect of not less than 0% and less than 10%, or phytotoxicity of 0% or more and less than 10%)
CNC(=O)C(Cn1cc(C)c(-c2ccc(OC)cc2)n1)=NOC [Compound 41, 2-methoxyimino-3-((4′-methoxyphenyl)-4-methyl-pyrazole)-1-yl-propanoic acid-N-methylamide]	0 (herbicidal effect of not less than 0% and less than 10%, or phytotoxicity of 0% or more and less than 10%)

Tested on: Rice (Oryza sativa)
Experiment: Test Example 3 paddy field treatment, crop phytotoxicity
Format: in vivo
Conditions: paddy field treatment, transplanted rice Koshihikari, wettable powder, active ingredient 1 kg per hectare, 21st day after the dropping, index 0-5
How it was run: as §1

SMILES	Herbicidal activity OS (phytotoxicity to rice)
CNC(=O)C(Cn1cc(C)c(-c2ccc(C)cc2)n1)=NOC [Compound 37]	1 (herbicidal effect of not less than 10% and less than 30%, or phytotoxicity of 10% or more and less than 30%)
CNC(=O)C(Cn1cc(C)c(-c2ccc(OC)cc2)n1)=NOC [Compound 41, 2-methoxyimino-3-((4′-methoxyphenyl)-4-methyl-pyrazole)-1-yl-propanoic acid-N-methylamide]	0 (herbicidal effect of not less than 0% and less than 10%, or phytotoxicity of 0% or more and less than 10%)

Tested on: Chenopodium album
Experiment: Test Example 2 upland soil treatment
Format: in vivo
Conditions: Table 5, upland soil treatment, index 0-5
How it was run: as §2

SMILES	Herbicidal activity CA: Chenopodium album
CNC(=O)C(Cn1cc(C)c(-c2ccc(C)cc2)n1)=NOC [Compound 37]	5 (herbicidal effect of not less than 90%, or phytotoxicity of 90% or more)
CNC(=O)C(Cn1cc(C)c(-c2ccc(OC)cc2)n1)=NOC [Compound 41, 2-methoxyimino-3-((4′-methoxyphenyl)-4-methyl-pyrazole)-1-yl-propanoic acid-N-methylamide]	5 (herbicidal effect of not less than 90%, or phytotoxicity of 90% or more)

Tested on: Setaria viridis
Experiment: Test Example 2 upland soil treatment
Format: in vivo
Conditions: Table 5, upland soil treatment, index 0-5
How it was run: as §2

SMILES	Herbicidal activity SV: Setaria viridis
CNC(=O)C(Cn1cc(C)c(-c2ccc(C)cc2)n1)=NOC [Compound 37]	5 (herbicidal effect of not less than 90%, or phytotoxicity of 90% or more)
CNC(=O)C(Cn1cc(C)c(-c2ccc(OC)cc2)n1)=NOC [Compound 41, 2-methoxyimino-3-((4′-methoxyphenyl)-4-methyl-pyrazole)-1-yl-propanoic acid-N-methylamide]	5 (herbicidal effect of not less than 90%, or phytotoxicity of 90% or more)

Tested on: Stellaria media
Experiment: Test Example 2 upland soil treatment
Format: in vivo
Conditions: Table 5, upland soil treatment, index 0-5
How it was run: as §2

SMILES	Herbicidal activity SM: Stellaria media
CNC(=O)C(Cn1cc(C)c(-c2ccc(C)cc2)n1)=NOC [Compound 37]	5 (herbicidal effect of not less than 90%, or phytotoxicity of 90% or more)
CNC(=O)C(Cn1cc(C)c(-c2ccc(OC)cc2)n1)=NOC [Compound 41, 2-methoxyimino-3-((4′-methoxyphenyl)-4-methyl-pyrazole)-1-yl-propanoic acid-N-methylamide]	5 (herbicidal effect of not less than 90%, or phytotoxicity of 90% or more)

Tested on: Digitaria adscendens
Experiment: Test Example 2 upland soil treatment
Format: in vivo
Conditions: Table 5, upland soil treatment, index 0-5
How it was run: as §2

SMILES	Herbicidal activity DA: Digitaria adscendens
CNC(=O)C(Cn1cc(C)c(-c2ccc(C)cc2)n1)=NOC [Compound 37]	5 (herbicidal effect of not less than 90%, or phytotoxicity of 90% or more)
CNC(=O)C(Cn1cc(C)c(-c2ccc(OC)cc2)n1)=NOC [Compound 41, 2-methoxyimino-3-((4′-methoxyphenyl)-4-methyl-pyrazole)-1-yl-propanoic acid-N-methylamide]	5 (herbicidal effect of not less than 90%, or phytotoxicity of 90% or more)

Tested on: soybean (Glycine max)
Experiment: Test Example 1 upland field foliage treatment, crop phytotoxicity
Format: in vivo
Conditions: Table 4, upland field foliage treatment, index 0-5
How it was run: (§3)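 Scores are visual 0–5 ratings of herbicidal effect or crop injury (0: under 10%; 5: 90% or more) taken 21 days after treatment. Plants grew from seed in upland soil for 14 days, then foliage received the compound as a water-diluted wettable powder at 1 kg/ha active ingredient.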

SMILES	Herbicidal activity (phytotoxicity) GM: Soybean (Glycine max)
CNC(=O)C(Cn1cc(C)c(-c2ccc(C)cc2)n1)=NOC [Compound 37]	0 (herbicidal effect of not less than 0% and less than 10%, or phytotoxicity of 0% or more and less than 10%)
CNC(=O)C(Cn1cc(C)c(-c2ccc(OC)cc2)n1)=NOC [Compound 41, 2-methoxyimino-3-((4′-methoxyphenyl)-4-methyl-pyrazole)-1-yl-propanoic acid-N-methylamide]	1 (herbicidal effect of not less than 10% and less than 30%, or phytotoxicity of 10% or more and less than 30%)

Tested on: wheat (Triticum aestivum)
Experiment: as above
Format: in vivo
Conditions: Table 4, upland field foliage treatment, index 0-5
How it was run: as §3

SMILES	Herbicidal activity (phytotoxicity) TA: Wheat (Triticum aestivum)
CNC(=O)C(Cn1cc(C)c(-c2ccc(C)cc2)n1)=NOC [Compound 37]	0 (herbicidal effect of not less than 0% and less than 10%, or phytotoxicity of 0% or more and less than 10%)
CNC(=O)C(Cn1cc(C)c(-c2ccc(OC)cc2)n1)=NOC [Compound 41, 2-methoxyimino-3-((4′-methoxyphenyl)-4-methyl-pyrazole)-1-yl-propanoic acid-N-methylamide]	0 (herbicidal effect of not less than 0% and less than 10%, or phytotoxicity of 0% or more and less than 10%)

Tested on: Chenopodium album
Experiment: Test Example 1 upland field foliage treatment
Format: in vivo
Conditions: Table 4, upland field foliage treatment, index 0-5
How it was run: as §3

SMILES	Herbicidal activity CA: Chenopodium album
CNC(=O)C(Cn1cc(C)c(-c2ccc(C)cc2)n1)=NOC [Compound 37]	5 (herbicidal effect of not less than 90%, or phytotoxicity of 90% or more)
CNC(=O)C(Cn1cc(C)c(-c2ccc(OC)cc2)n1)=NOC [Compound 41, 2-methoxyimino-3-((4′-methoxyphenyl)-4-methyl-pyrazole)-1-yl-propanoic acid-N-methylamide]	5 (herbicidal effect of not less than 90%, or phytotoxicity of 90% or more)

Tested on: Setaria viridis
Experiment: Test Example 1 upland field foliage treatment
Format: in vivo
Conditions: Table 4, upland field foliage treatment, index 0-5
How it was run: as §3

SMILES	Herbicidal activity SV: Setaria viridis
CNC(=O)C(Cn1cc(C)c(-c2ccc(C)cc2)n1)=NOC [Compound 37]	5 (herbicidal effect of not less than 90%, or phytotoxicity of 90% or more)
CNC(=O)C(Cn1cc(C)c(-c2ccc(OC)cc2)n1)=NOC [Compound 41, 2-methoxyimino-3-((4′-methoxyphenyl)-4-methyl-pyrazole)-1-yl-propanoic acid-N-methylamide]	5 (herbicidal effect of not less than 90%, or phytotoxicity of 90% or more)

Tested on: Stellaria media
Experiment: Test Example 1 upland field foliage treatment
Format: in vivo
Conditions: Table 4, upland field foliage treatment, index 0-5
How it was run: as §3

SMILES	Herbicidal activity SM: Stellaria media
CNC(=O)C(Cn1cc(C)c(-c2ccc(C)cc2)n1)=NOC [Compound 37]	5 (herbicidal effect of not less than 90%, or phytotoxicity of 90% or more)
CNC(=O)C(Cn1cc(C)c(-c2ccc(OC)cc2)n1)=NOC [Compound 41, 2-methoxyimino-3-((4′-methoxyphenyl)-4-methyl-pyrazole)-1-yl-propanoic acid-N-methylamide]	5 (herbicidal effect of not less than 90%, or phytotoxicity of 90% or more)

Tested on: Digitaria adscendens
Experiment: Test Example 1 upland field foliage treatment
Format: in vivo
Conditions: Table 4, upland field foliage treatment, index 0-5
How it was run: as §3

SMILES	Herbicidal activity DA: Digitaria adscendens
CNC(=O)C(Cn1cc(C)c(-c2ccc(C)cc2)n1)=NOC [Compound 37]	5 (herbicidal effect of not less than 90%, or phytotoxicity of 90% or more)
CNC(=O)C(Cn1cc(C)c(-c2ccc(OC)cc2)n1)=NOC [Compound 41, 2-methoxyimino-3-((4′-methoxyphenyl)-4-methyl-pyrazole)-1-yl-propanoic acid-N-methylamide]	5 (herbicidal effect of not less than 90%, or phytotoxicity of 90% or more)

— patent publication US7192906B2, “Substituted pyrazole derivatives, production process thereof, and herbicide compositions containing the derivatives” (SDS Biotech K.K., priority 2001, dated 2007)
